# According to patent US9062074B2, “(9E)-15-(2-pyrrolidin-1-yl-ethoxy)-7,12,25-trioxa-19,21,24-triaza-tetracyclo[18.3.1.1(2.5).1(14,18)]hexacosa-1(24),2,4,9,14,16,18(26),20,22-nonaene citrate salt” (CTI BioPharma Corp., priority 2009, dated 2015):
# Like-named read-outs stand apart in the source and are kept apart here.
# What was measured:
# Assay type in all cases: physicochemical
# [1] = Solubility assessment (solvent added in 10 volume aliquots); conditions: thermodynamic from solid, read-out: Solubility assessment observation
# Experimental: For each solvent investigated, approximately 8 mg of compound 1 was weighed into an 8 ml screw top glass vial. The solvent was added in 10 volume aliquots and the mixture sonicated and warmed (with a hot-air gun) to encourage dissolution. If dissolution was not achieved after the addition of 100 volumes of solvent, a further 100 volumes was added.
# [2] = Phase stability by XRPD after storage at 40° C. and 75% relative humidity for one week; conditions: solid form by low resolution XRPD after one week
# Experimental: Condition 2 (Low Resolution)
# X-Ray Powder Diffraction patterns were also collected on a Bruker D8 diffractometer using Cu K[…] radiation (40 kV, 40 mA), θ-2θ goniometer, and divergence of V4 and receiving slits, a Ge monochromator and a Lynxeye detector. The instrument is performance checked using a certified Corundum standard (NIST 1976). The software used for data collection was Diffrac Plus XRD Commander v2.5.0 and the data were analysed and presented using Diffrac Plus EVA v 11.0.0.2 or v 13.0.0.2. Samples were run under ambient conditions as flat plate specimens using powder as received. Approximately 15 mg of the sample was gently packed into a cavity cut into polished, zerobackground (510) silicon wafer. The sample was rotated in its own plane during analysis. The details of the data collection are:
# The samples which had been prepared for the collection of low resolution XRPD traces were placed in a chamber maintained at 40° C. and 75% relative humidity. After one week the samples were reanalysed by low resolution XRPD (Condition 2), to check for phase changes. It can be seen that no phase change has occurred, and that citrate salts of the invention are stable for at least one week under these conditions.
# [3] = Differential Scanning Calorimetry (DSC); conditions: heated at 10° C.min^−1
# Experimental: Differential Scanning Calorimetry (DSC) data were collected on a Mettler DSC 823e equipped with a 34 position auto-sampler. The instrument was calibrated for energy and temperature using certified indium. Typically 0.5-3 mg of each sample, in a pin-holed aluminium pan, was heated at 10° C.min^−1 from 25° C. to 350° C. A nitrogen purge at 50 ml.min^−1 was maintained over the sample. The instrument control and data analysis software was STARe v9.10.
# [4] = Thermogravimetric Analysis (TGA)
# Experimental: Thermogravimetric Analysis (TGA) data were collected on a Mettler TGA/SDTA 851e equipped with a 34 position autosampler. The instrument was temperature calibrated using certified indium. Typically 5-30 mg of each sample was loaded onto a pre-weighed aluminium crucible and was heated at 10° C.min^−1 from ambient temperature to 350° C. A nitrogen purge at 50 ml.min^−1 was maintained over the sample. The instrument control and data analysis software was STARe v9.10.
structure (smiles),measurement,setting,value
C1=C2COC/C=C/COCc3cc(ccc3OCCN3CCCC3)Nc3nccc(n3)C(=C1)O2 [Batch 5],solubility,"[1]; IPA, organic solvent or mixture, IPA, 10 vols",< 100 mg/mL
same,solubility,"[1]; IPA, organic solvent or mixture, IPA, 20 vols",< 50 mg/mL
same,solubility,"[1]; IPA, organic solvent or mixture, IPA, 30 vols",< 33.3 mg/mL
same,solubility,"[1]; IPA, organic solvent or mixture, IPA, 40 vols",< 25 mg/mL
same,solubility,"[1]; IPA, organic solvent or mixture, IPA, 60 vols",< 16.7 mg/mL
same,solubility,"[1]; IPA, organic solvent or mixture, IPA, 80 vols",< 12.5 mg/mL
same,solubility,"[1]; IPA, organic solvent or mixture, IPA, 100 vols",< 10 mg/mL
same,solubility,"[1]; IPA, organic solvent or mixture, IPA, 200 vols",< 5 mg/mL
same,solubility,"[1]; MEK, organic solvent or mixture, MEK, 10 vols",< 100 mg/mL
same,solubility,"[1]; MEK, organic solvent or mixture, MEK, 20 vols",< 50 mg/mL
same,solubility,"[1]; MEK, organic solvent or mixture, MEK, 30 vols",< 33.3 mg/mL
same,solubility,"[1]; MEK, organic solvent or mixture, MEK, 40 vols",< 25 mg/mL
same,solubility,"[1]; MEK, organic solvent or mixture, MEK, 50 vols",< 20 mg/mL
same,solubility,"[1]; MEK, organic solvent or mixture, MEK, 60 vols",< 16.7 mg/mL
same,solubility,"[1]; MEK, organic solvent or mixture, MEK, 80 vols",< 12.5 mg/mL
same,solubility,"[1]; MEK, organic solvent or mixture, MEK, 100 vols",< 10 mg/mL
same,solubility,"[1]; MEK, organic solvent or mixture, MEK, 200 vols",< 5 mg/mL
same,solubility,"[1]; THF, organic solvent or mixture, THF, 10 vols",< 100 mg/mL
same,solubility,"[1]; THF, organic solvent or mixture, THF, 20 vols",< 50 mg/mL
same,solubility,"[1]; THF, organic solvent or mixture, THF, 30 vols",< 33.3 mg/mL
same,solubility,"[1]; THF, organic solvent or mixture, THF, 40 vols",< 25 mg/mL
same,solubility,"[1]; THF, organic solvent or mixture, THF, 60 vols",< 16.7 mg/mL
same,solubility,"[1]; THF, organic solvent or mixture, THF, 80 vols",< 12.5 mg/mL
same,solubility,"[1]; THF, organic solvent or mixture, THF, 100 vols",< 10 mg/mL
same,solubility,"[1]; THF, organic solvent or mixture, THF, 200 vols",< 5 mg/mL
same,solubility,"[1]; acetone, organic solvent or mixture, Acetone, 10 vols",< 100 mg/mL
same,solubility,"[1]; acetone, organic solvent or mixture, Acetone, 20 vols",< 50 mg/mL
same,solubility,"[1]; acetone, organic solvent or mixture, Acetone, 40 vols",< 25 mg/mL
same,solubility,"[1]; acetone, organic solvent or mixture, Acetone, 60 vols",< 16.7 mg/mL
same,solubility,"[1]; acetone, organic solvent or mixture, Acetone, 80 vols",< 12.5 mg/mL
same,solubility,"[1]; acetone, organic solvent or mixture, Acetone, 100 vols",< 10 mg/mL
same,solubility,"[1]; acetone, organic solvent or mixture, Acetone, 200 vols",< 5 mg/mL
same,solubility,"[1]; acetonitrile, organic solvent or mixture, Acetonitrile, 10 vols",< 100 mg/mL
same,solubility,"[1]; acetonitrile, organic solvent or mixture, Acetonitrile, 20 vols",< 50 mg/mL
same,solubility,"[1]; acetonitrile, organic solvent or mixture, Acetonitrile, 30 vols",< 33.3 mg/mL
same,solubility,"[1]; acetonitrile, organic solvent or mixture, Acetonitrile, 40 vols",< 25 mg/mL
same,solubility,"[1]; acetonitrile, organic solvent or mixture, Acetonitrile, 60 vols",< 16.7 mg/mL
same,solubility,"[1]; acetonitrile, organic solvent or mixture, Acetonitrile, 80 vols",< 12.5 mg/mL
same,solubility,"[1]; acetonitrile, organic solvent or mixture, Acetonitrile, 100 vols",< 10 mg/mL
same,solubility,"[1]; acetonitrile, organic solvent or mixture, Acetonitrile, 200 vols",< 5 mg/mL
same,solubility,"[1]; ethanol, organic solvent or mixture, Ethanol, 10 vols",< 100 mg/mL
same,solubility,"[1]; ethanol, organic solvent or mixture, Ethanol, 20 vols",< 50 mg/mL
same,solubility,"[1]; ethanol, organic solvent or mixture, Ethanol, 30 vols",< 33.3 mg/mL
same,solubility,"[1]; ethanol, organic solvent or mixture, Ethanol, 40 vols",< 25 mg/mL
same,solubility,"[1]; ethanol, organic solvent or mixture, Ethanol, 60 vols",< 16.7 mg/mL
same,solubility,"[1]; ethanol, organic solvent or mixture, Ethanol, 80 vols",< 12.5 mg/mL
same,solubility,"[1]; ethanol, organic solvent or mixture, Ethanol, 100 vols",< 10 mg/mL
same,solubility,"[1]; ethanol, organic solvent or mixture, Ethanol, 200 vols",< 5 mg/mL
same,solubility,"[1]; water, Water, 10 vols",> 100 mg/mL
same,Phase Stability 1 wk @ 40° C./75% RH,[2],Crystalline Form 1
same,Differential Scanning Calorimetry complex endotherm onset (significant thermal event),[3],onset 178 °C
same,Thermogravimetric Analysis weight change,[4]; 160 to 250° C.,−21% w/w 160 to 250 °C
same,Thermogravimetric Analysis weight change,[4]; ambient to 160° C.,−0.4% w/w ambient to
